Results reported in ChEMBL document CHEMBL5724914, “Linking interpersonal differences in gut microbiota composition and drug biotransformation activity” (2024).

What was measured:
[1] = (§1) The drug is tested on Z-027 corresponding to metagenome with ENA study accession number: PRJEB37062 and ENA sample accession number: ERS12561826 for biotransformation under anaerobic condition. The drug concentrations were measured over 9 timepoints collected between 0 and 24 hours of incubation by liquid-chromatography-coupled mass spectrometry (LC–MS); conditions: 2 µM
[2] = (§2) The drug is tested on Z-024 corresponding to pig gut metagenome with ENA study accession number: PRJEB37062 and ENA sample accession number: ERS12561823 for biotransformation under anaerobic condition. The drug concentrations were measured over 9 timepoints collected between 0 and 24 hours of incubation by liquid-chromatography-coupled mass spectrometry (LC–MS); conditions: 2 µM
[3] = as §2, with “Z-019” for “Z-024”, “rat” for “pig”, “ERS12561818” for “ERS12561823”; conditions: 2 µM
[4] = as §2, with “Z-018” for “Z-024”, “ERS12561817” for “ERS12561823”; conditions: 2 µM
[5] = as §2, with “Z-017” for “Z-024”, “mouse” for “pig”, “ERS12561816” for “ERS12561823”; conditions: 2 µM
[6] = as §1, with “Z-012” for “Z-027”, “ERS12561812” for “ERS12561826”; conditions: 2 µM
[7] = as §1, with “Z-010” for “Z-027”, “ERS12561810” for “ERS12561826”; conditions: 2 µM
[8] = as §2, with “Z-009” for “Z-024”, “ERS12561809” for “ERS12561823”; conditions: 2 µM
[9] = as §2, with “Z-003” for “Z-024”, “ERS12561803” for “ERS12561823”; conditions: 2 µM
[10] = as §2, with “WLS-370” for “Z-024”, “human” for “pig”, “ERS12561793” for “ERS12561823”; conditions: 2 µM
[11] = as §2, with “WLS-310” for “Z-024”, “human” for “pig”, “ERS12561785” for “ERS12561823”; conditions: 2 µM
[12] = as §2, with “WLS-240” for “Z-024”, “human” for “pig”, “ERS12561773” for “ERS12561823”; conditions: 2 µM
[13] = as §2, with “WLS-052” for “Z-024”, “human” for “pig”, “ERS12561747” for “ERS12561823”; conditions: 2 µM
[14] = as §2, with “WLS-010” for “Z-024”, “human” for “pig”, “ERS12561743” for “ERS12561823”; conditions: 2 µM
[15] = human gut metagenome, 24 h, 2 µM
[16] = human gut metagenome, 24 h, 2 µM; remark: listed apart in the source
[17] = human gut metagenome, 24 h, 2 µM; remark: listed apart in the source
[18] = human gut metagenome, 24 h, 2 µM; remark: listed apart in the source
[19] = human gut metagenome, 24 h, 2 µM; remark: listed apart in the source
[20] = human gut metagenome, 24 h, 2 µM; remark: listed apart in the source
Also: call rule not given here.

Row | SMILES | Bacterial Biotransformation [1] | Bacterial Biotransformation [2] | Bacterial Biotransformation [3] | Bacterial Biotransformation [4] | Bacterial Biotransformation [5] | Bacterial Biotransformation [6] | Bacterial Biotransformation [7] | Bacterial Biotransformation [8] | Bacterial Biotransformation [9] | Bacterial Biotransformation [10] | Bacterial Biotransformation [11] | Bacterial Biotransformation [12] | Bacterial Biotransformation [13] | Bacterial Biotransformation [14] | Bacterial Biotransformation [15] | Bacterial Biotransformation [16] | Bacterial Biotransformation [17] | Bacterial Biotransformation [18] | Bacterial Biotransformation [19] | Bacterial Biotransformation [20]
1 | CCC(=O)NCC[C@@H]1CCc2ccc3c(c21)CCO3 [RAMELTEON] | Compound NOT metabolized | Compound metabolized | Compound NOT metabolized | Compound metabolized | Compound NOT metabolized | Compound metabolized | Compound metabolized | Compound metabolized | Compound metabolized | Compound metabolized | Compound metabolized | Compound metabolized | Compound metabolized | Compound metabolized | Compound metabolized | Compound metabolized | Compound NOT metabolized | Compound metabolized | Compound metabolized | Compound metabolized
2 | CNC(=C[N+](=O)[O-])NCCSCc1ccc(CN(C)C)o1 [RANITIDINE] | Compound NOT metabolized | Compound NOT metabolized | Compound metabolized | Compound metabolized | Compound metabolized | Compound metabolized | Compound metabolized | Compound metabolized | Compound metabolized | Compound NOT metabolized | Compound metabolized | Compound NOT metabolized | Compound NOT metabolized | Compound NOT metabolized | Compound NOT metabolized | Compound metabolized | Compound metabolized | Compound NOT metabolized | Compound metabolized | Compound NOT metabolized
3 | Nc1nc2ccc(OC(F)(F)F)cc2s1 [RILUZOLE] | Compound NOT metabolized | Compound metabolized | Compound NOT metabolized | Compound metabolized | Compound NOT metabolized | Compound metabolized | Compound metabolized | Compound metabolized | Compound metabolized | Compound metabolized | Compound metabolized | Compound metabolized | Compound metabolized | Compound metabolized | Compound metabolized | Compound metabolized | Compound metabolized | Compound metabolized | Compound metabolized | Compound metabolized
4 | CC(C)c1nc(CN(C)C(=O)N[C@H](C(=O)N[C@@H](Cc2ccccc2)C[C@H](O)[C@H](Cc2ccccc2)NC(=O)OCc2cncs2)C(C)C)cs1 [RITONAVIR] | Compound metabolized | Compound NOT metabolized | Compound NOT metabolized | Compound metabolized | Compound NOT metabolized | Compound metabolized | Compound metabolized | Compound metabolized | Compound metabolized | Compound metabolized | Compound metabolized | Compound metabolized | Compound metabolized | Compound metabolized | Compound NOT metabolized | Compound metabolized | Compound metabolized | Compound metabolized | Compound metabolized | Compound metabolized
5 | CC(C)NCC(O)c1ccc(NS(C)(=O)=O)cc1 (stereo not given) [SOTALOL] | Compound NOT metabolized | Compound NOT metabolized | Compound NOT metabolized | Compound NOT metabolized | Compound NOT metabolized | Compound NOT metabolized | Compound NOT metabolized | Compound NOT metabolized | Compound NOT metabolized | Compound NOT metabolized | Compound NOT metabolized | Compound NOT metabolized | Compound NOT metabolized | Compound NOT metabolized | Compound NOT metabolized | Compound NOT metabolized | Compound NOT metabolized | Compound NOT metabolized | Compound NOT metabolized | Compound NOT metabolized
6 | CCN1CCCC1CNC(=O)c1cc(S(N)(=O)=O)ccc1OC (stereo not given) [SULPIRIDE] | Compound NOT metabolized | Compound NOT metabolized | Compound NOT metabolized | Compound metabolized | Compound NOT metabolized | Compound NOT metabolized | Compound metabolized | Compound metabolized | Compound metabolized | Compound NOT metabolized | Compound metabolized | Compound metabolized | Compound NOT metabolized | Compound metabolized | Compound NOT metabolized | Compound NOT metabolized | Compound NOT metabolized | Compound metabolized | Compound metabolized | Compound metabolized
7 | CNS(=O)(=O)Cc1ccc2[nH]cc(CCN(C)C)c2c1.O=C(O)CCC(=O)O [SUMATRIPTAN SUCCINATE] | Compound NOT metabolized | Compound NOT metabolized | Compound NOT metabolized | Compound NOT metabolized | Compound NOT metabolized | Compound NOT metabolized | Compound NOT metabolized | Compound NOT metabolized | Compound metabolized | Compound NOT metabolized | Compound NOT metabolized | Compound metabolized | Compound NOT metabolized | Compound NOT metabolized | Compound NOT metabolized | Compound NOT metabolized | Compound NOT metabolized | Compound metabolized | Compound metabolized | Compound metabolized
